With `CCCOc1ccc(C(=O)CCN2CCCCC2)cc1` the logP was 3.72.
With `CCCOc1cc(C)c(C(=O)C(C)(C)CN2CCCCC2)c(C)c1` the logP was 4.51.
Compound `CCCOc1cc(C)c(C(=O)C(C)CN2CCCCC2)c(C)c1` (stereo not drawn) has a logP of 4.11.
For `Cc1ccc(C(=O)CCN2CCCCC2)cc1`, the logP was 3.55.
For `Cc1ccc(C(=O)C(C)CN2CCCCC2)c(C)c1` (stereo not drawn), the logP was 3.85.
`Cc1cccc(C)c1C(=O)CCN1CCCCC1` showed a logP of 3.53.
Compound `Cc1cc(C)c(C(=O)C(C)CN2CCCCC2)c(C)c1` (stereo not drawn) has a logP of 3.98.
`CCCOc1cc(C)c(C(=O)CCN2CCCCC2)c(C)c1` showed a logP of 3.84.
`CCCOc1ccc(C(=O)C(C)(C)CN2CCCCC2)cc1` showed a logP of 4.07.
For `CC(CN1CCCCC1)C(=O)c1ccccc1` (stereo not drawn), the logP was 3.51.
In the case of `CCCOc1ccc(C(=O)C(C)CN2CCCCC2)cc1` (stereo not drawn), the logP is reported as 3.81.
For `Cc1ccc(C(=O)C(C)CN2CCCCC2)cc1` (stereo not drawn), the logP was 3.65.
In the case of `Cc1cccc(C)c1C(=O)C(C)(C)CN1CCCCC1`, the logP is reported as 4.2.
For `Cc1ccccc1C(=O)C(C)CN1CCCCC1` (stereo not drawn), the logP was 3.69.
In the case of `Cc1cc(C)c(C(=O)CCN2CCCCC2)c(C)c1`, the logP is reported as 3.7.
Compound `Cc1ccc(C(=O)C(C)(C)CN2CCCCC2)cc1` has a logP of 3.92.
`Cc1cccc(C)c1C(=O)C(C)CN1CCCCC1` (stereo not drawn) showed a logP of 3.81.
For `Cc1ccccc1C(=O)CCN1CCCCC1`, the logP was 3.54.
`CCCOc1ccc(C(=O)CCN2CCCCC2)c(C)c1` showed a logP of 3.88.
`Cc1cc(C)c(C(=O)C(C)(C)CN2CCCCC2)c(C)c1` showed a logP of 4.36.
`Cc1ccc(C(=O)CCN2CCCCC2)c(C)c1` gave a logP of 3.71.
Work on `CC(C)(CN1CCCCC1)C(=O)c1ccccc1` yielded a logP of 3.78.
Work on `CCCOc1ccc(C(=O)C(C)CN2CCCCC2)c(C)c1` (stereo not drawn) yielded a logP of 4.
